# Assay results: patent US20150110723A1, “QUINAZOLINE DERIVATIVES, COMPOSITIONS, AND USES RELATED THERETO” (EMORY UNIVERSITY, priority 2012, published 2015)
# How the values were obtained:
# [1] = molecular target: T1, human Myeloperoxidase (Homo sapiens, UniProt P05164); assay: Amplex Red assay of purified MPO activity; format: biochemical; details: isolated purified human MPO, hydrogen peroxide as substrate
# T1 sequence (P05164 49-745): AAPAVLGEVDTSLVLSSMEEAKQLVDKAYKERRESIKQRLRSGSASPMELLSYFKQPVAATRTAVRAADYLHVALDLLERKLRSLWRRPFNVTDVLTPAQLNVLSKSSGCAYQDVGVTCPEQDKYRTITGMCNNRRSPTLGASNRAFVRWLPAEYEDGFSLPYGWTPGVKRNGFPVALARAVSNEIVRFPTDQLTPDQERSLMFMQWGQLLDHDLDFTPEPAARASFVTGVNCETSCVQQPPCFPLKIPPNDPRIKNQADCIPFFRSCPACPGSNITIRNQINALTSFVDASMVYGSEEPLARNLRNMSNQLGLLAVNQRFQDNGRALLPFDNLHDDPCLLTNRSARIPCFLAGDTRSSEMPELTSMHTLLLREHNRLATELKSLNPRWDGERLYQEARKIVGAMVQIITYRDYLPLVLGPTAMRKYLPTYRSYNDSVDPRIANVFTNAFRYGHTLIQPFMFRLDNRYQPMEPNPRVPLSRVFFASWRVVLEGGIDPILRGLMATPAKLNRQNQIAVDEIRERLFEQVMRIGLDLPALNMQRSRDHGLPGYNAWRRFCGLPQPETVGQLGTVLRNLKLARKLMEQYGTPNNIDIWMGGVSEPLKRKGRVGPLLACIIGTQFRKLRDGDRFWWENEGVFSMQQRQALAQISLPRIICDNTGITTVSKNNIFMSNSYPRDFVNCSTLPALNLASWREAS
# Procedure: In Table 2, isolated, purified human Myeloperoxidase was used in an enzyme assay system including hydrogen peroxide as substrate and Amplex Red to measure MPO enzymatic activity.
# Purified human MPO is mixed with the detector molecule Amplex Red (10-acetyl-3,7-dihydroxyphenoxazine) which increases fluorescence at 590 nm) Hydrogen peroxide is added to initiate the reaction and fluorescence is monitored.
# [2] = molecular target: T2, Nox2 (Homo sapiens, UniProt P04839); assay: Cytochrome c reduction assay for superoxide in activated human neutrophils; format: cell-based; details: for IC50: isolated human neutrophils, PMA-activated, absorbance at 550 nm
# T2 construct: superoxide originates from the endogenous Nox2 enzyme system; endogenous in cells; host or cells: isolated human neutrophils, PMA-stimulated
# T2 sequence (P04839 2-570 limits assumed): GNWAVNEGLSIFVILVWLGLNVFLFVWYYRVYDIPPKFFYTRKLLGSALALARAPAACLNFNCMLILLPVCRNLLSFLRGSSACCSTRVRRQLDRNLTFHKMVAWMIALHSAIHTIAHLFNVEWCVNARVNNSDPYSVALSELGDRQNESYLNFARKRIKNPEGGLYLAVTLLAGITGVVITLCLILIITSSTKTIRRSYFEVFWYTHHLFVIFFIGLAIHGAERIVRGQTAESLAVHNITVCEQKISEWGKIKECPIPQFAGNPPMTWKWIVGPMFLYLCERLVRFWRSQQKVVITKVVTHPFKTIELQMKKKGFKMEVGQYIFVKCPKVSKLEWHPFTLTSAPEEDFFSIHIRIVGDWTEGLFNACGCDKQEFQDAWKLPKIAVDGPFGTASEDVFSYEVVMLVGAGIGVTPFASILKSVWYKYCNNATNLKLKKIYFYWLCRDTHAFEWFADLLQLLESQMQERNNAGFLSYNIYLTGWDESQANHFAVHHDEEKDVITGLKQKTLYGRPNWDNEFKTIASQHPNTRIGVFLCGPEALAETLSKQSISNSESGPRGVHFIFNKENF
# T2 sequence (P13498 2-195 partner limits assumed): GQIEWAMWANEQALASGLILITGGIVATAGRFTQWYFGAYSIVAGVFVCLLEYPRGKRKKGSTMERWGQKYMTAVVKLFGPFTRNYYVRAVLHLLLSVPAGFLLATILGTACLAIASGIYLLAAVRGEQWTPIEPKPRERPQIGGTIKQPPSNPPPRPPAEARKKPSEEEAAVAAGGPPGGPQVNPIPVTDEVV
# Procedure: Isolated human neutrophils represent a system in which superoxide originates from the endogenous Nox2 enzyme system, and can be measured using cytochrome c reduction that is inhibitable by added superoxide dismutase. In Table 3, Nox2 activity in isolated human neutrophils was assayed using cytochrome c reduction.
# Isolated human neutrophils, which contain large amounts of Nox2 enzyme, are mixed with superoxide detector cytochrome c. Phorbol 12-myristate 13-acetate (PMA) is added at 1 μM final to stimulate Nox2 activation resulting superoxide production; absorbance at 550 nm is monitored.
# [3] = system: xanthine oxidase; assay: Xanthine/xanthine oxidase-L-012 control (interference) assay; format: biochemical; details: L-012 luminescence, FIG. 1 / FIG. 2
# Procedure: Two assays are used to rule out interference. In one assay, xanthine oxidase replaces the Nox2 and MPO enzymatic system as the source of ROS. See Ritsick et al. (2007) Free Radic Biol Med 43: 31-8. Xanthine was added to start the reaction and L012 luminescence was recorded. In a control for the luminol assay, exogenous H2O2 is supplied in place of the Nox expressing H2O2-generating cells or enzyme and luminol luminescence is recorded.
# [4] = system: Nox2/MPO System; assay: L-012 cell-free assay of Nox2/MPO activity (human neutrophil plasma membranes plus recombinant p47phox, p67phox, Rac1Q61L); format: biochemical; details: for Inhibition of ROS from neutrophil membranes assayed by L-012 (figure legend): cell-free L-012 assay, FIG. 1 / FIG. 2; for IC50: read-out: L-012 Assay IC50 μM ± SEM
# Procedure: In Table 1 a cell-free semi-recombinant system (consisting of isolated plasma membranes from human neutrophils as a source for Nox2-p22phox and MPO), supplemented with recombinant p47phox, p67phox and Rac1Q61L (activated Rac), expressed in and isolated from of E. coli. L-012 luminescence was used as a readout to monitor enzymatic activity that monitors the combined enzymatic activity of both the Nox2 system and MPO.
# Plasma membranes were prepared from human neutrophils. […]. Membranes were stored at −80 C until use. Membranes are mixed with recombinant, purified cytosolic regulatory proteins (p67Np47 chimera, and constitutively active Rac1 mutant Q61) and FAD, along with varying concentrations of compound, and L-012, which luminesces when it reacts with ROS derived either from Nox2 or from MPO. The reaction is initiated by addition of NADPH and SDS (an artificial activatyor for Nox2). See Curnutte et al., (1987) J. Biol. Chem. 262: 6450-6452.
# [5] = cell-free semi-recombinant system, L-012 luminescence, does not distinguish Nox2 from MPO inhibition
compound,measurement,setting,value
COc1cc2[nH]c(=S)n(CCCCN(C)C)c(=O)c2cc1OC [AS2-30],IC50,[1],4 µM
CN(C)CCCn1c(SCC(=O)Nc2nc(-c3ccc(Br)cc3)cs2)nc2ccccc2c1=O [AS148A],IC50,[2],1 µM
CCN(CC)CCCn1c(SCC(=O)Nc2nc(-c3ccc(Br)cc3)cs2)nc2ccccc2c1=O [AS158A],IC50,[2],0.6 µM
CN(C)CCCCn1c(SCC(=O)Nc2nc(-c3ccc(Br)cc3)cs2)nc2ccccc2c1=O [AS158B],IC50,[2],3 µM
same,Effect on control assay with ROS generated from xanthine plus xanthine oxidase,[3],does not affect control assay
same,Inhibition of ROS from neutrophil membranes assayed by L-012 (figure legend),[4],inhibits ROS generation
CN(C)CCCCn1c(SCC(=O)Nc2nc(-c3cccc(Br)c3)cs2)nc2ccccc2c1=O [AS195],IC50,[2],1.5 µM
COC(=O)c1ccc2c(=O)n(N)c(=S)[nH]c2c1 [AS261b],IC50,[1],1.5 µM
CN(C)CCCn1c(=S)[nH]c2ccccc2c1=O [Compound 2a],IC50,[4]; [5],3.3 ± 0.3 µM
CN(C)CCCn1c(=O)[nH]c2ccccc2c1=O [Compound 2b],L-012 Assay IC50 μM ± SEM,[4]; [5],N•I
O=c1c2ccccc2[nH]c(=S)n1CCc1ccccn1 [Compound 2zzz],IC50,[4]; [5],4 ± 1 µM
CCn1c(=S)[nH]c2ccc(F)cc2c1=O [Compound 3k],IC50,[4]; [5],0.7 ± 0.1 µM
CC(C)n1c(=S)[nH]c2cc(F)c(F)cc2c1=O [Compound 3l],IC50,[4]; [5],0.7 ± 0.1 µM
COc1cc2[nH]c(=S)n(C(C)C)c(=O)c2cc1OC [Compound 3m],IC50,[4]; [5],0.7 ± 0.1 µM
COCCCn1c(=S)[nH]c2ccccc2c1=O [LY1-21],IC50,[1],3 µM
O=c1c2ccccc2[nH]c(=S)n1CCc1cnc[nH]1 [LY1-27],IC50,[1],1 µM
O=c1c2cc(F)ccc2[nH]c(=S)n1CCc1cnc[nH]1 [LY1-73],IC50,[1],1.5 µM
CN1CCN(CCCn2c(=S)[nH]c3ccc(F)cc3c2=O)CC1 [LY1-107N],IC50,[1],1 µM
CN(C)CCCn1c(=S)[nH]c2ccccc2c1=O [TG6-17-2],IC50,[1],1.5 µM
CCN(CC)CCn1c(=S)[nH]c2ccccc2c1=O [TG6-27-2],IC50,[1],2 µM
CN(C)CCCn1c(=S)[nH]c2ccc(Cl)cc2c1=O [TG6-44],Effect on control assay with ROS generated from xanthine plus xanthine oxidase,[3],does not affect control assay
same,Inhibition of ROS from neutrophil membranes assayed by L-012 (figure legend),[4],Inhibits ROS activity
same,IC50,[4]; [5],1.2 ± 0.1 µM
same,IC50,[1],1 µM
O=c1c2ccccc2[nH]c(=S)n1CCN1CCCC1 [TG6-52-2],IC50,[1],1.5 µM
CC(Sc1nc2ccccc2c(=O)n1CCCN(C)C)C(=O)Nc1nc(-c2cccc(Br)c2)cs1 (centres unmarked) [TG6-73],Inhibition of superoxide production from Nox2 in intact human neutrophils (figure legend),"[2]; cytochrome c reduction, absorbance increase at 550 nm, FIG. 3",inhibits superoxide production
same,IC50,[2],2 µM
CN(C)CCCn1c(=S)[nH]c2ccc(F)cc2c1=O [TG6-248],IC50,[1],2 µM
CN(C)CCCn1c(=S)[nH]c2cc(F)c(F)cc2c1=O [TG6-250],IC50,[1],1 µM
